# According to patent publication US11866450B2, “Modulators of Cystic Fibrosis Transmembrane Conductance regulator, pharmaceutical compositions, methods of treatment, and process for making the modulators” (priority 2018, dated 2024):
# Where two headings read alike, the source gives them in different places.
# How the values were obtained:
# [1] = target: CFTR-mediated chloride transport (Homo sapiens, UniProt P13569); format: cell-based; conditions: enteroid cells incubated with test compound 18-24 hours, acute 10 μM forskolin and 300 nM Compound III; for Max. Activity: % of chloride transport with 3 μM Compound A, 3 μM Compound II and 300 nM acute Compound III triple combination control
# Outline: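 Human intestinal enteroid cells incubated with compound 18–24 h at 37° C., then membrane potential dye (FLIPR) read 15 min after chloride-free stimulation with 10 μM forskolin, 100 μM IBMX and 300 nM Compound III. AUC expressed as % of triple-combination control (3 μM Compound A, 3 μM Compound II, 300 nM Compound III).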
# [2] = snar bond
# Sequence of CFTR-mediated chloride transport (P13569 whole entry, looked up): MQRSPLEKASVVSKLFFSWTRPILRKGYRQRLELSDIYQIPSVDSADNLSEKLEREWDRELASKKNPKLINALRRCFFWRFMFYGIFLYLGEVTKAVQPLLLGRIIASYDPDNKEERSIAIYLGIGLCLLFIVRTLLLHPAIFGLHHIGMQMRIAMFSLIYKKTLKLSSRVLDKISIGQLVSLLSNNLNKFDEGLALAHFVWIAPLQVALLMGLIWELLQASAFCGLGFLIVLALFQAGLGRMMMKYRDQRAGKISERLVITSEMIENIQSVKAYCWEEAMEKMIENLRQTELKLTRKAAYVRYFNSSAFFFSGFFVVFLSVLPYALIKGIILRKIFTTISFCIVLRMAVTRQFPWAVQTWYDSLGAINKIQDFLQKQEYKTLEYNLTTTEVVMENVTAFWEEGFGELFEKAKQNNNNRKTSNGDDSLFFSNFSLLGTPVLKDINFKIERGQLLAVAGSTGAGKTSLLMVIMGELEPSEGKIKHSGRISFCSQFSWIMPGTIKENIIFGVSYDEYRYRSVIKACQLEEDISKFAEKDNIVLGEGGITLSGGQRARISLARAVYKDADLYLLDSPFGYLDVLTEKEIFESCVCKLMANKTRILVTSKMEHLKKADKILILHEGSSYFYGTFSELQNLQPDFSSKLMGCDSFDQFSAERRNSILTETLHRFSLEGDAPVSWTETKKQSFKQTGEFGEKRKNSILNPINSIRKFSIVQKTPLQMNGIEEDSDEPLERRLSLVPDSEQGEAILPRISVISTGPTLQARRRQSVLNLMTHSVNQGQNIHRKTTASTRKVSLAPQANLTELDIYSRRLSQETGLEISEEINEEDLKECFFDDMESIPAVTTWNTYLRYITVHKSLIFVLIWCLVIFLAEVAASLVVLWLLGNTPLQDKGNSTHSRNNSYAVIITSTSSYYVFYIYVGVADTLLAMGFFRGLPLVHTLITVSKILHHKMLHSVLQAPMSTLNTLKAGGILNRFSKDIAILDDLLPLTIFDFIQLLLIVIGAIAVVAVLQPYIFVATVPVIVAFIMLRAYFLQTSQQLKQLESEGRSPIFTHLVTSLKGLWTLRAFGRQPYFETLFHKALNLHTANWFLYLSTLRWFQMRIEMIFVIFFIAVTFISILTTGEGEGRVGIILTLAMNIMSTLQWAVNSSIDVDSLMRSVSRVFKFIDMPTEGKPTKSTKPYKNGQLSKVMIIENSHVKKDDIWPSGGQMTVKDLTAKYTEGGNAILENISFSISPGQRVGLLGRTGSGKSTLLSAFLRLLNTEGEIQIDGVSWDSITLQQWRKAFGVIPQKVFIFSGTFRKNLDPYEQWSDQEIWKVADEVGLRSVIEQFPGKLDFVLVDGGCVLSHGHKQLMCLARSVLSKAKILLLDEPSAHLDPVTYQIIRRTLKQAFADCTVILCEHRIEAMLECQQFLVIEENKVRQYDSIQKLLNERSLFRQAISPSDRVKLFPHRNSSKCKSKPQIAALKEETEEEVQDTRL
SMILES,EC50 [1] [nM],Max. Activity [1],other results
"CC1(C)CC2CCCOc3ccc(cc3)S(=O)(=O)NC(=O)c3ccc(-n4ccc(OCCC5(C(F)(F)F)CC5)n4)nc3N1C2 (racemic) [Compound 88, 12,12-Dimethyl-8-(3-{2-[1-(trifluoromethyl)cyclopropyl]ethoxy}-1H-pyrazol-1-yl)-18-oxa-2λ^6-thia-3,9,11-triazatetracyclo[17.2.2.111,14.05,10]tetracosa-1(21),5,7,9,19,22-hexaene-2,2,4-trione]",< 1000,++ (++ is 30-60%),"ring closure, isolated yield ([2]; from CC1(C)CC(CCCOc2ccc(S(=O)(=O)NC(=O)c3ccc(-n4ccc(OCCC5(C(F)(F)F)CC5)n4)nc3Cl)cc2)CN1, 16-membered ring, K2CO3/CsF/3A MS, DMSO, 37.3 mM, 35.0 h): 4%"
"CC1(C)CC2CCCCc3cccc(c3)S(=O)(=O)NC(=O)c3ccc(-n4ccc(OCCC5(C(F)(F)F)CC5)n4)nc3N1C2 (stereo not drawn) [Compound 53, 12,12-dimethyl-8-(3-{2-[1-(trifluoromethyl)cyclopropyl]ethoxy}-1H-pyrazol-1-yl)-2λ^6-thia-3,9,11-triazatetracyclo[17.3.1.111,14.05,10]tetracosa-1(22),5,7,9,19(23),20-hexaene-2,2,4-trione]",< 1000,+++ (+++ is >60%),"ring closure, isolated yield ([2]; from CC1(C)CC(CCCCc2cccc(S(=O)(=O)NC(=O)c3ccc(-n4ccc(OCCC5(C(F)(F)F)CC5)n4)nc3Cl)c2)CN1, 15-membered ring, K2CO3/CsF/3A MS, DMSO, 32.0 mM, 165.0 °C, 6.0 h): 51%"
"CC1(C)CC2CCCCCc3ccc(cn3)S(=O)(=O)NC(=O)c3ccc(-n4ccc(OCCC5(C(F)(F)F)CC5)n4)nc3N1C2 (stereo not drawn) [Compound 142, 12,12-Dimethyl-8-(3-{2-[1-(trifluoromethyl)cyclopropyl]ethoxy}-1H-pyrazol-1-yl)-2λ^6-thia-3,9,11,21-tetraazatetracyclo[18.2.2.111,14.05,10]pentacosa-1(23),5,7,9,20(24),21-hexaene-2,2,4-trione]",< 1000,+ (+ is <30%),"ring closure, isolated yield ([2]; from 2-chloro-N-[[6-[5-(5,5-dimethylpyrrolidin-3-yl)pentyl]-3-pyridyl]sulfonyl]-6-[3-[2-[1-(trifluoromethyl)cyclopropyl]ethoxy]pyrazol-1-yl]pyridine-3-carboxamide (dihydrochloride salt), 17-membered ring, K2CO3/CsF, DMSO, 63.0 mM, 165.0 °C): 36%"
"CC1(C)CC2CNc3cccc(n3)S(=O)(=O)NC(=O)c3ccc(-n4ccc(OCCC5(C(F)(F)F)CC5)n4)nc3N1C2 (stereo not drawn) [Compound 17, 6,6-dimethyl-10-(3-{2-[1-(trifluoromethyl)cyclopropyl]ethoxy}-1H-pyrazol-1-yl)-16λ^6-thia-2,7,9,15,21-pentaazatetracyclo[15.3.1.14,7.08,13]docosa-1(20),8,10,12,17(21),18-hexaene-14,16,16-trione]",1000 to 3000,++ (++ is 30-60%),"ring closure, isolated yield ([2]; from CC(C)(C)OC(=O)N1CC(CNc2cccc(S(=O)(=O)NC(=O)c3ccc(-n4ccc(OCCC5(C(F)(F)F)CC5)n4)nc3Cl)n2)CC1(C)C, 13-membered ring, K2CO3/CsF/3A MS, DMSO, 45.0 mM, 155.0 °C, 2 steps): 57%"
"CC1(C)CC2CCCn3ccc(n3)S(=O)(=O)NC(=O)c3ccc(-n4ccc(OCCC5C6(CC6)C56CC6)n4)nc3N1C2 (stereo not drawn) [Compound 176, 4-[3-(2-{dispiro[2.0.2.1]heptan-7-yl}ethoxy)-1H-pyrazol-1-yl]-20,20-dimethyl-10λ^6-thia-1,3,9,14,22-pentaazatetracyclo[16.2.1.111,14.02,7]docosa-2,4,6,11(22),12-pentaene-8,10,10-trione]",< 1000,+++ (+++ is >60%),"ring closure, isolated yield ([2]; from CC1(C)CC(CCCn2ccc(S(=O)(=O)NC(=O)c3ccc(-n4ccc(OCCC5C6(CC6)C56CC6)n4)nc3Cl)n2)CN1, 14-membered ring, K2CO3/CsF/3A MS, DMSO, 53.1 mM, 155.0 °C): 40%"
"[2H]C([2H])([2H])C1(C([2H])([2H])[2H])C[C@@H]2CCCNc3cccc(n3)S(=O)(=O)NC(=O)c3ccc(-n4ccc(OCCCC5(C(F)(F)F)CC5)n4)nc3N1C2 [Compound 292, (14S)-12,12-di(trideuterio)methyl-8-(3-{3-[1-(trifluoromethyl)cyclopropyl]propoxy}-1H-pyrazol-1-yl)-2λ^6-thia-3,9,11,18,23-pentaazatetracyclo[17.3.1.111,14.05,10]tetracosa-1(22),5,7,9,19(23),20-hexaene-2,2,4-trione]",< 1000,+++ (+++ is >60%),"ring closure, isolated yield ([2]; from [2H]C([2H])([2H])C1(C([2H])([2H])[2H])C[C@H](CCCNc2cccc(S(=O)(=O)NC(=O)c3ccc(-n4ccc(OCCCC5(C(F)(F)F)CC5)n4)nc3Cl)n2)CN1, 15-membered ring, K2CO3, NMP, 41.5 mM, 135.0 °C, 22.0 h): 27%"
"CN1CCCC2CN(c3nc(-n4ccc(OCCC5(C(F)(F)F)CC5)n4)ccc3C(=O)NS(=O)(=O)c3ccc1nc3)C(C)(C)C2 (stereo not drawn) [Compound 140, 12,12,18-Trimethyl-8-(3-{2-[1-(trifluoromethyl)cyclopropyl]ethoxy}-1H-pyrazol-1-yl)-2λ^6-thia-3,9,11,18,20-pentaazatetracyclo[17.2.2.111,14.05,10]tetracosa-1(22),5,7,9,19(23),20-hexaene-2,2,4-trione]",< 1000,++ (++ is 30-60%),"ring closure, isolated yield ([2]; from CN(CCCC1CNC(C)(C)C1)c1ccc(S(=O)(=O)NC(=O)c2ccc(-n3ccc(OCCC4(C(F)(F)F)CC4)n3)nc2Cl)cn1, 16-membered ring, K2CO3/CsF, DMSO, 10.2 mM, 200.0 °C, 1.5 h): 12%"
"CC1(C)C[C@@H]2CCCNc3cccc(n3)S(=O)(=O)NC(=O)c3ccc(-n4ccc(OCCC5C(C)(C)C5(C)C)n4)nc3N1C2 [Compound 185, (14S)-12,12-Dimethyl-8-{3-[2-(2,2,3,3-tetramethylcyclopropyl)ethoxy]-1H-pyrazol-1-yl}-2λ^6-thia-3,9,11,18,23-pentaazatetracyclo[17.3.1.111,14.05,10]tetracosa-1(23),5(10),6,8,19,21-hexaene-2,2,4-trione]",< 1000,+++ (+++ is >60%),"ring closure, isolated yield ([2]; from CC(C)(C)OC(=O)N1C[C@@H](CCCNc2cccc(S(=O)(=O)NC(=O)c3ccc(-n4ccc(OCCC5C(C)(C)C5(C)C)n4)nc3Cl)n2)CC1(C)C, 15-membered ring, K2CO3/3A MS, DMSO, 37.9 mM, 160.0 °C, 2 steps): 19%"
"[2H]C([2H])(COc1ccn(-c2ccc3c(n2)N2C[C@@H](CCCNc4cccc(n4)S(=O)(=O)NC3=O)CC2(C)C)n1)C([2H])([2H])C1(C(F)(F)F)CC1 [Compound 287, (14S)-12,12-dimethyl-8-(3-{3-[1-(trifluoromethyl)cyclopropyl]-2,2,3,3-tetradeuterio-propoxy}-1H-pyrazol-1-yl)-2λ^6-thia-3,9,11,18,23-pentaazatetracyclo[17.3.1.111,14.05,10]tetracosa-1(22),5,7,9,19(23),20-hexaene-2,2,4-trione]",< 1000,++ (++ is 30-60%),"ring closure, isolated yield ([2]; from [2H]C([2H])(COc1ccn(-c2ccc(C(=O)NS(=O)(=O)c3cccc(NCCC[C@@H]4CNC(C)(C)C4)n3)c(Cl)n2)n1)C([2H])([2H])C1(C(F)(F)F)CC1, 15-membered ring, K2CO3, NMP, 20.8 mM, 155.0 °C, 18.0 h): 73%"
"CC1(C)C[C@@H]2CCCNc3cccc(n3)S(=O)(=O)NC(=O)c3ccc(-n4ccc(OCCCC5(C(F)(F)F)CC5)n4)nc3N1C2 [Compound 161, (14S)-12,12-dimethyl-8-(3-{3-[1-(trifluoromethyl)cyclopropyl]propoxy}-1H-pyrazol-1-yl)-2λ^6-thia-3,9,11,18,23-pentaazatetracyclo[17.3.1.111,14.05,10]tetracosa-1(22),5,7,9,19(23),20-hexaene-2,2,4-trione]",< 1000,+++ (+++ is >60%),"ring closure, isolated yield ([2]; from 2-chloro-N-[[6-[3-[(3S)-5,5-dimethylpyrrolidin-3-yl]propylamino]-2-pyridyl]sulfonyl]-6-[3-[3-[1-(trifluoromethyl)cyclopropyl]propoxy]pyrazol-1-yl]pyridine-3-carboxamide (dihydrochloride salt), 15-membered ring, K2CO3/CsF, NMP, 83.9 mM, 150.0 °C): 55%"
